In PubChem BioAssay (NCI) one finds GI50 and TGI data, which are given here for eight compounds.

“And” between values parts separate entries of the source, which are not always exact repeats. Equal values may be shown once.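 Test compounds were applied to cells in 96-well plates for 48 hours at 5 doses. GI50 = concentration required for 50% inhibition of growth. TGI is the concentration that stops growth completely.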 Where only a bound is given, the exact number is not on record here.

Among the test systems are SW-620 colon; DU-145 prostate; KM12 colon; OVCAR-8 ovarian; NCI-H23 lung; SF-268 CNS; MDA-MB-435; SF-295 CNS; UACC-257 melanoma; UACC-62 melanoma.
What all share (assay): NCI tumour cell line growth inhibition, 48 h

For the compound `CCCCNC(=O)Oc1ccc(/C(=C(/CC)Cc2ccccc2)c2ccc(OCCN3CCCCCC3)cc2)cc1`, the GI50 with SW-620 colon was 20.5 µM; in the experiment with DU-145 prostate, 41.7 µM; with KM12 colon, 31.7 µM; in the experiment on OVCAR-8 ovarian, 19.1 µM; in the experiment on NCI-H23 lung, 59.1 µM; with SF-268 CNS it was 59.8 µM. The GI50 was 17.2 µM in the experiment with MDA-MB-435, 18.3 µM with SF-295 CNS, 19.8 µM in the experiment on UACC-257 melanoma and 19.6 µM with UACC-62 melanoma. In addition, the TGI in the experiment on SW-620 colon is 42.5 µM; with DU-145 prostate it was greater than 100 µM; in the experiment with KM12 colon, greater than 100 µM; with OVCAR-8 ovarian, 36.6 µM; with NCI-H23 lung, greater than 100 µM; with SF-268 CNS, greater than 100 µM. Besides, the TGI in the experiment with MDA-MB-435 stood at 34.3 µM; with SF-295 CNS, 38.4 µM; in the experiment on UACC-257 melanoma, 40.2 µM; in the experiment on UACC-62 melanoma, 38 µM.

Consider `O=C(O)c1cccc(/C=C/c2ccccc2)c1`, for which the TGI with SW-620 colon, in the experiment with DU-145 prostate, in the experiment on KM12 colon, in the experiment with OVCAR-8 ovarian, in the experiment with NCI-H23 lung and in the experiment on SF-268 CNS was greater than 100 µM each time. Also, the TGI in the experiment on MDA-MB-435, with SF-295 CNS, in the experiment on UACC-257 melanoma and in the experiment with UACC-62 melanoma was greater than 100 µM throughout.

For `O=C(Nc1ccc(Br)cc1)Nc1nn(C(=O)Nc2ccc(Br)cc2)c2ccccc12`, the GI50 in the experiment with SW-620 colon was greater than 38.6 µM; with DU-145 prostate, 28.9 µM; with KM12 colon, greater than 88.8 µM; in the experiment on OVCAR-8 ovarian, 36.2 µM; in the experiment on NCI-H23 lung, 29.1 µM; with SF-268 CNS, 17.6 µM. The GI50 in the experiment with MDA-MB-435 is greater than 100 µM; in the experiment on SF-295 CNS it was 18 µM; in the experiment with UACC-257 melanoma it was greater than 77.6 µM; in the experiment with UACC-62 melanoma, 36.5 µM. Moreover, the TGI with SW-620 colon was greater than 100 µM; in the experiment on DU-145 prostate, greater than 100 µM; in the experiment on KM12 colon it was greater than 100 µM; in the experiment with OVCAR-8 ovarian it was greater than 100 µM; with NCI-H23 lung, greater than 100 µM; in the experiment on SF-268 CNS it was greater than 63.9 µM. For the same compound, the TGI is greater than 100 µM with MDA-MB-435, 66.1 µM with SF-295 CNS, greater than 100 µM in the experiment on UACC-257 melanoma and greater than 100 µM in the experiment with UACC-62 melanoma.

For the compound `C/C(=C(/c1ccc(O)cc1)c1ccc(Cl)cc1)c1ccccc1`, the GI50 was 0.8 µM with SW-620 colon; 0.719 µM with DU-145 prostate; 0.543 µM with KM12 colon; 0.9 µM in the experiment on OVCAR-8 ovarian; 0.625 µM with NCI-H23 lung; 0.582 µM in the experiment with SF-268 CNS. The GI50 in the experiment with MDA-MB-435 was 0.534 µM; in the experiment on SF-295 CNS, 0.603 µM; in the experiment with UACC-257 melanoma it was 0.822 µM; in the experiment on UACC-62 melanoma, 0.473 µM. Also, the TGI was 2.78 µM in the experiment on SW-620 colon; 1.91 µM in the experiment with DU-145 prostate; 1.22 µM with KM12 colon; 3.21 µM in the experiment on OVCAR-8 ovarian; 1.84 µM in the experiment with NCI-H23 lung; 1.61 µM in the experiment on SF-268 CNS. The TGI in the experiment with MDA-MB-435 amounted to 1.18 µM; with SF-295 CNS, 1.5 µM; in the experiment with UACC-257 melanoma it was 2.77 µM; in the experiment on UACC-62 melanoma it was 1.06 µM.

In the case of `C[C@]12CC[C@@H](OC(=O)N(CCCl)N=O)C[C@@H]1CC[C@@H]1[C@@H]2CC[C@]2(C)C(=O)CC[C@@H]12`, the GI50 is 7.67 µM with SW-620 colon; 0.671 µM in the experiment with DU-145 prostate; 2.81 µM in the experiment with KM12 colon; 7.21 µM with OVCAR-8 ovarian; 15.3 µM in the experiment on NCI-H23 lung; 0.632 µM with SF-268 CNS. Further, the GI50 was 10.6 µM with MDA-MB-435, 0.308 µM with SF-295 CNS, 3.99 µM in the experiment with UACC-257 melanoma and 1.46 µM in the experiment on UACC-62 melanoma. For the same compound, the TGI in the experiment with SW-620 colon amounted to 22.6 µM; in the experiment on DU-145 prostate it was 7.54 µM; in the experiment on KM12 colon it was 16.3 µM; in the experiment on OVCAR-8 ovarian, 28.5 µM; in the experiment with NCI-H23 lung, 67.2 µM; in the experiment with SF-268 CNS, 18.9 µM. The TGI in the experiment on MDA-MB-435 was 44.1 µM; with SF-295 CNS, greater than 51.1 µM; in the experiment with UACC-257 melanoma it was 23.9 µM; in the experiment with UACC-62 melanoma it was 25.6 µM.

In the case of `CCCCCCNC(=O)Oc1ccc(/C(=C(/C)Cc2ccc(OC)cc2)c2ccc(OCCN(C)C)cc2)cc1`, the GI50 was 4.86 µM with SW-620 colon; 5.55 µM in the experiment on DU-145 prostate; 4.98 µM with KM12 colon; 5.32 µM in the experiment with OVCAR-8 ovarian; 5.28 µM in the experiment on NCI-H23 lung; 5.07 µM in the experiment on SF-268 CNS. Besides, the GI50 is 4.62 µM with MDA-MB-435, 5.2 µM with SF-295 CNS, 6.42 µM in the experiment on UACC-257 melanoma and 4.44 µM in the experiment on UACC-62 melanoma. The TGI with SW-620 colon was 9.59 µM; with DU-145 prostate, 10.4 µM; in the experiment on KM12 colon it was 10.1 µM; with OVCAR-8 ovarian, 11.1 µM; in the experiment on NCI-H23 lung, 10.5 µM; in the experiment on SF-268 CNS, 10.9 µM. Further, the TGI with MDA-MB-435 was found to be 9.17 µM; in the experiment on SF-295 CNS, 9.82 µM; in the experiment with UACC-257 melanoma, 11.9 µM; in the experiment with UACC-62 melanoma, 8.72 µM.

For `Oc1c(Cl)cc(Cl)cc1Sc1cc(Cl)cc(Cl)c1O`, the GI50 in the experiment with SW-620 colon was 3.32 µM and 3.06 µM; with DU-145 prostate it was 5.01 µM and 4.18 µM; in the experiment with KM12 colon, 3.54 µM and 2.93 µM; with OVCAR-8 ovarian, 3.28 µM and 2.85 µM; in the experiment with NCI-H23 lung, 2.56 µM and 2.34 µM; in the experiment with SF-268 CNS, 4.4 µM and 3.44 µM. Also, the GI50 in the experiment on MDA-MB-435 is 3.42 µM and 2.72 µM; in the experiment on SF-295 CNS, 2.33 µM and 2.34 µM; with UACC-257 melanoma it was 2.65 µM and 1.94 µM; in the experiment on UACC-62 melanoma, 3.57 µM and 2.02 µM. Also, the TGI was 13.2 µM and 12.5 µM in the experiment on SW-620 colon; 20.8 µM and 15.5 µM in the experiment with DU-145 prostate; 10.7 µM and 10.5 µM in the experiment on KM12 colon; 12.6 µM and 11.4 µM with OVCAR-8 ovarian; 10.8 µM and 7.76 µM in the experiment with NCI-H23 lung; 17.3 µM and 14 µM in the experiment with SF-268 CNS. The TGI in the experiment with MDA-MB-435 was 12.4 µM and 9 µM; with SF-295 CNS it was 6.47 µM and 6.51 µM; with UACC-257 melanoma, 7.86 µM and 5.71 µM; with UACC-62 melanoma it was 14.1 µM and 5.44 µM.

Turning to `C/C(=N\NC(=S)N1CCN(c2ccccn2)CC1)c1nccs1`, the TGI with SW-620 colon was 20.2 µM; in the experiment with DU-145 prostate, 14.1 µM; in the experiment with KM12 colon, 18.9 µM; with OVCAR-8 ovarian, 14.4 µM; in the experiment on NCI-H23 lung, 13.8 µM; in the experiment on SF-268 CNS, greater than 54.2 µM. The TGI is 12.8 µM in the experiment on MDA-MB-435, 20.7 µM with SF-295 CNS, 12.8 µM with UACC-257 melanoma and 0.834 µM in the experiment with UACC-62 melanoma. For the same compound, in the experiment on NCI-H23 lung, the GI50 is 0.0643 µM.
